Measurements: US5633274A, “Cancer treatments” (President and Fellows of Harvard College, priority 1993, dated 1997)
Entries after “also recorded” stand apart in the source; their conditions may differ. Read-outs that look alike come from different tables or passages of the source.

Experiments:
nonprostate cancer cells = test: Proliferation of nonprostate cancer cells (general statements); format: cell-based; conditions: for inhibition of (nonprostate cancer) cell proliferation: other channel and transport inhibitors
[1] = test system: rat vascular smooth muscle cells; test: cells; conditions: read-out: inhibition of DNA synthesis
Description: (§4) DNA synthesis assessed by the uptake of [3H]thymidine: Cells are grown in either 48 or 96 wells plates (Costar, Cambridge, Mass.) at 10^4 and 0.8 10^3 cells per well, respectively, and grown in Dubelcco's modified Eagle's medium (DME, Gibco, Grand Island, N.Y.) supplemented with 10% heat-inactivated calf serum; they are kept at 37° C. in 5% CO2. When they reach confluence, usually between 3 and 4 days, the medium is replaced with DME 0.5% serum to make them quiescent, and mitogenesis assays are performed 24 hours later.
(§5) Quiescent cells are exposed to a mitogenic stimulus, such as 10% serum, PDGF (Sigma Co. St. Louis, Mo.), bFGF (Upstate Biotechnologies, Lake Placid, N.Y.), or other appropriate mitogen according to the cell line, and 3 hours later 1 μCi/ml of [3H]thymidine (Dupont, Billerica, Mass.) is added to the wells, and the cells maintained at 37° C./5% CO2 for additional 21 hours. Then the cells are washed 3 times with DME medium and the acid-precipitable radioactivity is extracted with cold 10% TCA (Sigma, Co). After neutralization with 0.3N NaOH (Sigma Co.), aliquots are counted in a Packard Tri-Carb Scintillation counter (Packard Instrument, Downer's Grove, Ill.).
Cells were stimulated using 5 μM bFGF.

[2] = test system: Primary human sarcomas rabdomyosarcoma; test: Cell growth of primary human rabdomyosarcoma (surface covered by monolayer); format: cell-based; conditions: 10 μM CLT; 48 hours
Description: (§1) Measurement of cell density in culture plates: Cells of a specific test cell line are seeded at precisely the same low density in culture plates and incubated for approximately 12 hours in DME 10% serum, or other culture medium depending on the cell line tested. […] Alternatively, the cells can be detached from the plate by incubation with trypsin (Sigma, Co.) […] in ethylene diaminotetraacetic acid (ECTA; Sigma, Co); then the cells are counted in an hemocytometer chamber (Fisher, Pittsburgh, Pa.).
(§2) Primary human sarcomas rabdomyosarcoma and liposarcoma: Fresh human cancer specimens were obtained from human subjects undergoing a surgical procedure; the tumors were treated with colagenase to dissociate the cells which were then seeded at low density (1×10^5 in small culture chambers containing hybridomas grade culture medium supplemented with 5% fetal calf serum; after 12 hrs., when the cells were attached to the surface of the culture chambers, CLT (10 μM) or carrier (ethanol) were added *triplicate chambers). After 48 hours cell growth was assessed by optic miscroscopy calculating the surface of the culture flask covered by the cell monolayer.

[3] = test system: rat vascular smooth muscle cells
Description: as §4, §5
Cells were stimulated using 5 μM bFGF.

[4] = test system: human lung adenocarcinoma cells; test: DNA synthesis ([3H]thymidine incorporation) in human lung adenocarcinoma cells; format: cell-based; conditions: FIG. 1
Description: (§3) The inhibitory effect of clotrimazol (CLT) on cell proliferation was assessed in cancerous cells. Quiescent human colon adenocarcinoma and human lung adenocarcinoma cells were stimulated with 5% fetal calf serum and synthesis of DNA was assessed by the incorporation of [3H]thymidine measures 24 hours later. […] The effect was not due to a toxic, non-specific, effect because it was reversed by removing CLT and re-stimulating the cells with 5% fetal calf serum (FIG. 1).

[5] = test system: human colon adenocarcinoma cells; test: DNA synthesis ([3H]thymidine incorporation) in human colon adenocarcinoma cells; format: cell-based; conditions: FIG. 1
Description: as §3

[6] = target: T1, Ca++ activated K channel of human erythrocytes (Homo sapiens, UniProt O15554); test: Inhibition of Ca++ activated K channel of human erythrocytes (86Rb influx, K efflux); format: cell-based
T1 construct: Preparation of Human Red Blood Cells: Blood is collected in heparinized tubes; endogenous in cells; host or cells: washed human erythrocytes (red blood cells) from heparinized blood
Description: Preparation of Human Red Blood Cells: Blood is collected in heparinized tubes and centrifuged in a Sorvall centrifuge (RB 5B, Du Pont Instruments,Newtown, Conn.) at 5° C. for 10 minutes at 3000 g. Plasma and buffy coat are carefully removed and the cells washed four times with a washing solution containing 150 mM choline chloride (Sigma Co), 1 mM MgC12 (Sigma Co), 10 mM Tris-MOPS (Sigma, Ca), pH 7.4 at 4° C.(CWS). An aliquot of cells is then suspended in an approximately equal volume of CWS, and from this original cell suspension hematocrit (Hct) and hemoglobin (optical density at 540 nm) are determined.
Methods to Test Inhibitors of the Ca^++ Activated K: To test inhibitors of the Ca^++ activated K channel, the channel is activated using the calcium ionophore A23187 (Chalbiochem).
By Atomic Absorption Spectrometry: Washed human erythrocyte are suspended at an hematocrit≈1% in CWS containing 0.150 mM CaCl2 (Sigma Co) Aliquots of 1 ml are removed at 0, 3 and 5 minutes, layered on top of 0.3 ml of the oil n-butyl phthalate (Fair Lane, N.J.) placed in an Eppendorf microtube (Fisher) and then centrifuged in a micro centrifuge for 20 seconds. At time 5.30 minutes, ionophore A23187 (1 μM final concentration) is added and samples removed and spin down through phthalate at times 6, 7, 8 and 9 minutes. The supernatant on top of the oil layer is removed and its K+ concentration is measured by atomic absorption spectrometry using a Perking Elmer model 5000 spectrometer (Perkin Elmer Corp., Norwolk, Conn.). The efflux of K+ (mmol/l cells/h) in the absence and presence of the inhibitor is calculated from the slope of the curves relating the K+ concentration in the supernatants (mmol/l cells) vs. time (min.).
By radioisotopic measurement of ^86 Rb influx. The incubation medium is the same but contains 2 mM KCl and 1 μCi/ml of the radioactive tracer ^86 Rb. After spinning the samples through the phthalate layer, the tubes are rapidly frozen (-80° C.) by immersion in methanol-dry ice, the tips of the tubes containing the packed red cells cut, and counted in a Packard Gamma Counter.
The inhibitory effect of (CLT) on the Ca^++ activated K channel of human erythrocytes was assessed in the presence of 60 μmol A23187/L cell and 100 μMCaCl2.
Other antimycotics were tested for their inhibition of the Ca++ activated 86Rb influx human erythrocytes.

adenocarcinomas in rats = test: Inhibition of tumor growth in vivo (adenocarcinomas in rats); design: species or system rat
Description: The efficacy of CLT was studied in inhibiting the growth of adenocarcinomas in rats. […] Tumors were measured by size and weight on a daily basis, and growth rates were calculated. Nonparametric statistical comparisons were made among the median growth rates of all of the treatment groups.

[7] = test system: primary human sarcoma cells; test: bFGF-stimulated DNA synthesis in primary human sarcoma cells; format: cell-based; conditions: for inhibition of DNA synthesis by other inhibitors of the Ca++ activated K channel: toxins, concentration not given
Description: as §2
Other antimycotics were tested for their inhibition of bFGF-stimulated DNA synthesis in the primary human sarcoma cells of Example 3.

[8] = test system: Primary human sarcomas liposarcoma; test: Cell growth of primary human liposarcoma (surface covered by monolayer); format: cell-based; conditions: 10 μM CLT; 48 hours
Description: as §1, §2

[9] = test system: 21- and/or 11-hydroxylase; conditions: background; cited from earlier work
17-hydroxylase = conditions: background; cited from earlier work
17-20 desmolase = conditions: background; cited from earlier work
[10] = test system: testicular and adrenal synthesis of steroid hormones, including testosterone; conditions: cited from earlier work
[11] = 10 μM CLT, 5% fetal calf serum stimulation, 24 hours
[12] = re-stimulated with 5% fetal calf serum
[13] = 60 μmol A23187/L cell and 100 μM CaCl2
[14] = other antimycotics, human erythrocytes, FIG. 4

N=C(N)NC(=O)c1nc(Cl)c(N)nc1N [amiloride]
inhibition of (nonprostate cancer) cell proliferation (nonprostate cancer cells): do not inhibit cell proliferation

Clc1ccccc1C(c1ccccc1)(c1ccccc1)n1ccnc1 [clotrimazole]
inhibition at 1 µM [1]: 45%
growth of sarcoma cells [2]: completely arrested
inhibition of growth [2]: More than 95%
dose dependence of inhibition of DNA synthesis ([3]; 0.001 μM, 0.1 μM, 1 μM and 10 μM): dose dependent
inhibition of DNA synthesis ([3]; 10 μM, bFGF stimulation): complete inhibition
inhibition of DNA synthesis [4, 11]: completely inhibited
reversibility of effect on removing CLT and re-stimulating (not due to a toxic, non-specific effect) [4, 12]: reversed
inhibition of DNA synthesis [5, 11]: completely inhibited
reversibility of effect on removing CLT and re-stimulating (not due to a toxic, non-specific effect) [5, 12]: reversed
inhibition of Ca++ activated 86Rb influx [6, 13]: markedly inhibited
inhibition of K efflux [6, 13]: markedly inhibited
order of inhibitory potency (Ca++ activated 86Rb influx) ([6]; human erythrocytes, FIG. 4): clotrimazole more than miconazole
median tumor growth rate (adenocarcinomas in rats; 100 mg/kg by mouth in peanut oil): significant reduction
median tumor growth rate (adenocarcinomas in rats; 200 mg/kg by mouth in peanut oil): significant reduction
order of inhibitory potency (DNA synthesis) [7]: CLT more potent than ECZ
inhibition of bFGF-stimulated DNA synthesis ([7]; 10 µM): inhibited DNA synthesis
growth of sarcoma cells [8]: completely arrested
inhibition of growth [8]: More than 95%

Clc1ccc(COC(Cn2ccnc2)c2ccc(Cl)cc2Cl)cc1 (stereo not shown) [econazole]
order of inhibitory potency (Ca++ activated 86Rb influx) ([6]; human erythrocytes, FIG. 4): both of these were more than econazole
inhibition of bFGF-stimulated DNA synthesis ([7]; 10 μM, FIG. 3): inhibited DNA synthesis
order of inhibitory potency (DNA synthesis) ([7]; 10 μM, FIG. 3): ECZ more potent than MCZ

OC(Cn1cncn1)(Cn1cncn1)c1ccc(F)cc1F [fluconazole]
inhibition of Ca++ activated 86Rb influx [6, 14]: no inhibition

CC(=O)N1CCN(c2ccc(OCC3COC(Cn4ccnc4)(c4ccc(Cl)cc4Cl)O3)cc2)CC1 (stereo not shown) [ketoconazole]
inhibition of 21- and/or 11-hydroxylase [9]: marked inhibition
blockade of 17-hydroxylase (17-hydroxylase): partial blockade
inhibition of 17-20 desmolase (17-20 desmolase): inhibition
inhibition of testicular and adrenal synthesis of steroid hormones, including testosterone ([10]; in high doses): inhibits testicular and adrenal synthesis of steroid hormones, including testosterone
plasma testosterone ([10]; prostate cancer treatment): reduces plasma testosterone to castration levels
inhibition of growth/proliferation of nonprostate cancer cells (nonprostate cancer cells; nonprostate cancer cells tested by the applicants): ineffective; also recorded: not useful for inhibiting proliferation

Cc1ncc([N+](=O)[O-])n1CCO [metronidazole]
inhibition of Ca++ activated 86Rb influx [6, 14]: only marginal

Clc1ccc(COC(Cn2ccnc2)c2ccc(Cl)cc2Cl)c(Cl)c1 (stereo not shown) [miconazole]
order of inhibitory potency (Ca++ activated 86Rb influx) ([6]; human erythrocytes, FIG. 4): clotrimazole more than miconazole; and both of these were more than econazole
inhibition of bFGF-stimulated DNA synthesis ([7]; 10 μM, FIG. 3): inhibited DNA synthesis
order of inhibitory potency (DNA synthesis) ([7]; 10 μM, FIG. 3): ECZ more potent than MCZ

Cc1ncc([N+](=O)[O-])n1CC(O)CCl (stereo not shown) [ornidazole]
inhibition of Ca++ activated 86Rb influx [6, 14]: no inhibition

C[C@@H]1O[C@@H](O[C@H]2C[C@@H](O)[C@]3(CO)[C@H]4[C@H](O)C[C@]5(C)[C@@H](C6=CC(=O)OC6)CC[C@]5(O)[C@@H]4CC[C@]3(O)C2)[C@H](O)[C@H](O)[C@H]1O [ouabain]
inhibition of (nonprostate cancer) cell proliferation (nonprostate cancer cells): do not inhibit cell proliferation

CCS(=O)(=O)CCn1c([N+](=O)[O-])cnc1C [tinidazole]
inhibition of Ca++ activated 86Rb influx [6, 14]: no inhibition

charybdotoxin
inhibition of (nonprostate cancer) cell proliferation (nonprostate cancer cells): do not inhibit proliferation
inhibition of DNA synthesis by other inhibitors of the Ca++ activated K channel [7]: failed to inhibit DNA synthesis

kaliotoxin: specific inhibitor of the Ca++ activated potassium channel
inhibition of (nonprostate cancer) cell proliferation (nonprostate cancer cells): do not inhibit proliferation
inhibition of DNA synthesis by other inhibitors of the Ca++ activated K channel [7]: failed to inhibit DNA synthesis
